In patent US20250221960A1, “COMPOSITIONS AND METHODS FOR THE TREATMENT OF DEPRESSION” (Janssen Pharmaceuticals, Inc., priority 2022, published 2025):

Columns and labels:
subjects with MDD = test: SHAPS total score (anhedonia), Example 1; format: in vivo, human; details: for SHAPS Total Score Change from Baseline LSMean (SE), MMRM / SHAPS Total Score Effect Size vs placebo / SHAPS Total Score LSMean Difference (SE) Treatment - Placebo, MMRM: 10 mg
Source text: To assess a potential effect on anhedonia, an anhedonia scale may be used. For example, the Snaith-Hamilton Pleasure Scale (SHAPS) analysis is a validated scale for the measurement of anhedonia. The SHAPS is a subject completed scale in which subjects score whether or not they experience pleasure in performing a list of activities or experiences. The SHAPS is a self-reported 14-item instrument, developed for the assessment of hedonic capacity. Subjects score whether they experience pleasure in performing a list of activities or experiences. Subjects can rate the answers as 1-4 where 1 indicates “Definitely agree”, 2 indicates “Agree”, 3 indicates “Disagree” and 4 indicates “Definitely disagree”. The subject's item responses are summed to provide a total score ranging from 14 to 56. A higher total SHAPS score indicates higher levels of current anhedonia. Physician/clinical judgment can be used to assess anhedonia separately or in conjunction with an anhedonia scale.
In some embodiments, the patient has anhedonia. In some embodiments, the patient has moderate anhedonia. In other embodiments, the patient has severe anhedonia. An assessment of moderate or severe anhedonia is typically determined physician/clinical judgment and/or by one or more tests that provide insight into whether a patient has anhedonia. For example, the severity of the anhedonia may be determined using the SHAPS method. In some embodiments, a patient with moderate or severe anhedonia is considered to have a high level of anhedonia. For example, a patient with a SHAPS score of 38 or greater is considered to have moderate to severe anhedonia that can be considered a high level of anhedonia. In some embodiments, a high level of anhedonia is reflected by a SHAPS score of at least about 40, about 42, about 44, about 46, about 48, about 50, about 52, about 54, about 56, about 58, or higher. A patient with mild or no anhedonia would be considered to have a low level of anhedonia that is assessed by physician/clinical judgment and/or one or more tests. For example, a patient with a SHAPS score of less than 38 is considered to have low anhedonia. In certain embodiments, a patient with mild anhedonia may have a SHAPS score of 20 to less than 38, for example, a SHAPS score of 20 to about 36, about 22 to about 36, about 24 to about 36, about 26 to about 36, about 26 to about 34, about 26 to about 32, about 26 to about 30, about 26 to about 28, about 28 to about 36, about 28 to about 36, about 30, to about 36, about 32 to about 36, about 34 to about 36, about 20 to about 34, about 22 to about 34, about 24 to about 34, about 26 to about 32, about 26 to about 30, about 26 to about 28, about 28 to about 36, about 28 to about 34, about 28 to about 32, about 28 to about 30, about 30 to about 36, about 30 to about 34, about 30 to about 32, about 32 to about 36, about 32 to about 34, or about 34 to about 36. Typically, a SHAPS score of less than 20 can be considered to correspond to normal hedonic functioning, and for purposes of this disclosure, would fall into the low category of anhedonia, e.g., a SHAPS score of less than 38.
iii. To investigate the effect of aticaprant versus placebo on depression related anhedonia as assessed by the SHAPS.
The treatment phase consisted of 3 periods. […] There were 11 scheduled visits, including screening.

[1] = Completion / early withdrawal, Example 1; format: in vivo, human; details: Full Safety Analysis Set; 10 mg, N = 85
Source text: Patients who passed the screening phase entered a lead in phase followed by a double-blind phase. Patients who responded to placebo during the lead in phase were labelled as non-responders. […] The double-blind treatment phase then continued for an additional 6 weeks, after which patients entered a withdrawal period.
Of the 121 subjects in the enriched population (60 in aticaprant and 61 in placebo group), 117 (96.7%) completed the study. The overall completion rate for the full ITT analysis set is 95%. This contrasts with completion rates of approximately 85% for studies of adjunctive aripiprazole (Pae, CNS Drugs, 2011; 25, 109-127) and 45-62% for adjunctive quetiapine (El Khalili cited above). In total 4 subjects (3.3%) discontinued the study: 2 subjects in placebo and 2 subjects in aticaprant treatment group. See, Tables 30 and 31.

Cc1cc(C)cc(C2CCCN2Cc2ccc(Oc3ccc(C(N)=O)cc3F)cc2)c1 (centres unmarked) [aticaprant, 3-fluoro-4-4-2-(3,5-dimethylphenyl) pyrrolidin-1-yl-methylphenoxybenzamide]
Frequency of Subjects: High Level of Anhedonia (SHAPS Total Score >= 38) (subjects with MDD; Treatment Week 6, eITT, N = 59): 8 (13.56%) | Frequency of Subjects: Low Level of Anhedonia (20 <= SHAPS Total Score < 38) (subjects with MDD; Treatment Week 6, eITT, N = 59): 48 (81.36%) | Frequency of Subjects: No Anhedonia (SHAPS Total Score < 20) (subjects with MDD; Treatment Week 6, eITT, N = 59): 3 (5.08%) | Frequency of Subjects: High Level of Anhedonia (SHAPS Total Score >= 38) (subjects with MDD; Treatment Week 6, fITT, N = 77): 8 (10.39%) | Frequency of Subjects: Low Level of Anhedonia (20 <= SHAPS Total Score < 38) (subjects with MDD; Treatment Week 6, fITT, N = 77): 62 (80.52%) | Frequency of Subjects: No Anhedonia (SHAPS Total Score < 20) (subjects with MDD; Treatment Week 6, fITT, N = 77): 7 (9.09%) | SHAPS Total Score Change from Baseline LSMean (SE), MMRM (subjects with MDD; eITT, Treatment Week 1): −1.7 | SHAPS Total Score Effect Size vs placebo (subjects with MDD; eITT, Treatment Week 1): −0.15 | SHAPS Total Score LSMean Difference (SE) Treatment - Placebo, MMRM (subjects with MDD; eITT, Treatment Week 1): −0.8 | SHAPS Total Score Change from Baseline LSMean (SE), MMRM (subjects with MDD; eITT, Treatment Week 3): −3.2 | SHAPS Total Score Effect Size vs placebo (subjects with MDD; eITT, Treatment Week 3): −0.25 | SHAPS Total Score LSMean Difference (SE) Treatment - Placebo, MMRM (subjects with MDD; eITT, Treatment Week 3): −1.4 | SHAPS Total Score Change from Baseline LSMean (SE), MMRM (subjects with MDD; eITT, Treatment Week 4): −4.3 | SHAPS Total Score Effect Size vs placebo (subjects with MDD; eITT, Treatment Week 4): −0.23 | SHAPS Total Score LSMean Difference (SE) Treatment - Placebo, MMRM (subjects with MDD; eITT, Treatment Week 4): −1.4 | SHAPS Total Score Change from Baseline LSMean (SE), MMRM (subjects with MDD; eITT, Treatment Week 5): −4.0 | SHAPS Total Score Effect Size vs placebo (subjects with MDD; eITT, Treatment Week 5): −0.08 | SHAPS Total Score LSMean Difference (SE) Treatment - Placebo, MMRM (subjects with MDD; eITT, Treatment Week 5): −0.5 | SHAPS Total Score Change from Baseline LSMean (SE), MMRM (subjects with MDD; eITT, Treatment Week 6): −4.4 | SHAPS Total Score LSMean Difference (SE) Treatment - Placebo, MMRM (subjects with MDD; eITT, Treatment Week 6): −0.7 | SHAPS Total Score Change from Baseline LSMean (SE), MMRM (subjects with MDD; fITT, Treatment Week 1): −1.9 | SHAPS Total Score Effect Size vs placebo (subjects with MDD; fITT, Treatment Week 1): −0.15 | SHAPS Total Score LSMean Difference (SE) Treatment - Placebo, MMRM (subjects with MDD; fITT, Treatment Week 1): −1.0 | SHAPS Total Score Change from Baseline LSMean (SE), MMRM (subjects with MDD; fITT, Treatment Week 3): −3.1 | SHAPS Total Score Effect Size vs placebo (subjects with MDD; fITT, Treatment Week 3): −0.20 | SHAPS Total Score LSMean Difference (SE) Treatment - Placebo, MMRM (subjects with MDD; fITT, Treatment Week 3): −1.4 | SHAPS Total Score Change from Baseline LSMean (SE), MMRM (subjects with MDD; fITT, Treatment Week 4): −4.1 | SHAPS Total Score Effect Size vs placebo (subjects with MDD; fITT, Treatment Week 4): −0.23 | SHAPS Total Score LSMean Difference (SE) Treatment - Placebo, MMRM (subjects with MDD; fITT, Treatment Week 4): −1.6 | SHAPS Total Score Change from Baseline LSMean (SE), MMRM (subjects with MDD; fITT, Treatment Week 5): −4.1 | SHAPS Total Score Effect Size vs placebo (subjects with MDD; fITT, Treatment Week 5): −0.09 | SHAPS Total Score LSMean Difference (SE) Treatment - Placebo, MMRM (subjects with MDD; fITT, Treatment Week 5): −0.8 | SHAPS Total Score Change from Baseline LSMean (SE), MMRM (subjects with MDD; fITT, Treatment Week 6): −4.5 | SHAPS Total Score LSMean Difference (SE) Treatment - Placebo, MMRM (subjects with MDD; fITT, Treatment Week 6): −0.8 | Reason For Withdrawal/Termination: Adverse event [1]: 1 (1.2%)
